The values below come from US20240218079A1, “PLASMA KALLIKREIN ANTIBODIES AND USES THEREOF” (Astria Therapeutics, Inc., priority 2021, published 2024).

Holding throughout (type): biochemical
In assay [1] the target is T1, Factor XIIa (Homo sapiens, UniProt P00748).
T1 sequence (P00748 373-615 limits assumed): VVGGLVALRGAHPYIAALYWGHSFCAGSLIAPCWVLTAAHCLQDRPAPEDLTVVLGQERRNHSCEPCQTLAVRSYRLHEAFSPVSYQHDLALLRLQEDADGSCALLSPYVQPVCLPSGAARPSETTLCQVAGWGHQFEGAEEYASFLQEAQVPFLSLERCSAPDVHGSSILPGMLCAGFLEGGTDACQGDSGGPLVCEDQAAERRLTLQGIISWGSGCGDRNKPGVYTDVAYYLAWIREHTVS
Briefly: Serine protease inhibition assay: Factor XIIa. As to conditions: control compound, 10-dose 3-fold serial dilution starting at 10 μM or 100 uM. How it is done: (§1) Control compounds were tested in a 10-dose assay with 3-fold serial dilution starting at 10 μM or 100 uM (tPA, Matriptase 2, Kallikrein 5, Kallikrein 2, Kallikrein 1, Granzyme B, and APC). The protease activities were monitored as a time-course measurement of the increase in fluorescence signal from a fluorescently-labeled peptide substrate, and the initial linear portion of the signal slope (signal/min) was analyzed. % Enzyme activity for antibody titrations were calculated respective to vehicle controls in presence of PBS buffer as 100% Activity.
(§2) Empty cells indicate no inhibition or compound activity that could not be fit to an IC50 curve. The IC50 value higher than 1 μM was estimated based on the best curve fitting available.

The target in assay [2] is Kallikrein 1 (Homo sapiens, UniProt P06870). Nature of the assay: Serine protease inhibition assay: Kallikrein 1. The following applies: control compound, 10-dose 3-fold serial dilution starting at 10 μM or 100 uM. How it is done:
as §1, §2

The target in assay [3] is T2, Factor VIIa (Homo sapiens, UniProt P08709).
T2 sequence (P08709 213-466 limits assumed): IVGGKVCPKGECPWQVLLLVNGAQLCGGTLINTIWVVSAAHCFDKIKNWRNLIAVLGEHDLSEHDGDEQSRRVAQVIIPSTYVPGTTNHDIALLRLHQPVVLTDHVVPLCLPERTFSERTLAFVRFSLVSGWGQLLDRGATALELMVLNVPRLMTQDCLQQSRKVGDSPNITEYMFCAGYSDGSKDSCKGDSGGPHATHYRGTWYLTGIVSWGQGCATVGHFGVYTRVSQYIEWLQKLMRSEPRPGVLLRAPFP
T2 sequence (P08709 61-212 limits assumed): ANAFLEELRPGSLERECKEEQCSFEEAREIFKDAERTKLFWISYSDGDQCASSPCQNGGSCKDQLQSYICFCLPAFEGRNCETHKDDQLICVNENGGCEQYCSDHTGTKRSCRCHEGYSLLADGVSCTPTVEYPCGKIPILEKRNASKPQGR
Briefly: Serine protease inhibition assay: Factor VIIa. The following applies: control compound, 10-dose 3-fold serial dilution starting at 10 μM or 100 uM. How it is done: as §1, §2

In assay [4] the target is T3, Kallikrein 5 (Homo sapiens, UniProt Q9Y337).
T3 sequence (Q9Y337 23-293): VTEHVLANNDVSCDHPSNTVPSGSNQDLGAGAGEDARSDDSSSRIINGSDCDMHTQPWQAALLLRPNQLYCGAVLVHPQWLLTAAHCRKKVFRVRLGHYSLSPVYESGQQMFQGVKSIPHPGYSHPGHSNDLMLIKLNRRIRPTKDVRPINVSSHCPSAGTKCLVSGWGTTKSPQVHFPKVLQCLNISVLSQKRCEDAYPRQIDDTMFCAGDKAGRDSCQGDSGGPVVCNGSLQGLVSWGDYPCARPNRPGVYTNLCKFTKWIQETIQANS
Nature of the assay: Serine protease inhibition assay: Kallikrein 5. The following applies: control compound, 10-dose 3-fold serial dilution starting at 10 μM or 100 uM. As for the experimental part:
as §1, §2

Assay [5] concerns the target T4, Matriptase 2 (Homo sapiens, UniProt Q8IU80).
T4 sequence (Q8IU80 1-811): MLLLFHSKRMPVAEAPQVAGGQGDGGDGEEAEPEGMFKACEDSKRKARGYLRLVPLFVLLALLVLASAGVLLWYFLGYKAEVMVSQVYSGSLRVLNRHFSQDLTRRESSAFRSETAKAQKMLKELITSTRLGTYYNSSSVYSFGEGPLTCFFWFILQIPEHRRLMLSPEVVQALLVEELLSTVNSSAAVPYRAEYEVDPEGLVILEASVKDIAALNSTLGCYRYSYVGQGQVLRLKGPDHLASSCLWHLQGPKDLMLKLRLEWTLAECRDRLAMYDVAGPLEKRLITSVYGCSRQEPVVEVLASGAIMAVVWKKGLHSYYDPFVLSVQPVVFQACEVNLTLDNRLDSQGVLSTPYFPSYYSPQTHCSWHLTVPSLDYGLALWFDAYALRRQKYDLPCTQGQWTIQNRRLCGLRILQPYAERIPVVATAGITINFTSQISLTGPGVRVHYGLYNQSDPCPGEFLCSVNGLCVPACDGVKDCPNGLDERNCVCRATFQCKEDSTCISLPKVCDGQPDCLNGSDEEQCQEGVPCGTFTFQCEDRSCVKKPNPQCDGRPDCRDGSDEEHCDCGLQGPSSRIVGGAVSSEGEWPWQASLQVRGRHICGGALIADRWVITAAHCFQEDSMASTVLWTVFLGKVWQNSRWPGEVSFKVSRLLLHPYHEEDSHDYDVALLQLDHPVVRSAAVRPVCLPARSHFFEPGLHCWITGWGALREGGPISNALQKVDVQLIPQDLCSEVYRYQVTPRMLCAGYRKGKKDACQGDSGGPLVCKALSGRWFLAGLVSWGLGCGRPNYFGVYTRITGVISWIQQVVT
Briefly: Serine protease inhibition assay: Matriptase 2. The following applies: control compound, 10-dose 3-fold serial dilution starting at 10 μM or 100 uM. How it is done:
as §1, §2

For assay [6], the target named is tPA (Homo sapiens, UniProt P00750). Briefly: Serine protease inhibition assay: tPA. As to conditions: control compound, 10-dose 3-fold serial dilution starting at 10 μM or 100 uM. How it is done: as §1, §2
Chain of tPA (P00750 36-562, species assumed): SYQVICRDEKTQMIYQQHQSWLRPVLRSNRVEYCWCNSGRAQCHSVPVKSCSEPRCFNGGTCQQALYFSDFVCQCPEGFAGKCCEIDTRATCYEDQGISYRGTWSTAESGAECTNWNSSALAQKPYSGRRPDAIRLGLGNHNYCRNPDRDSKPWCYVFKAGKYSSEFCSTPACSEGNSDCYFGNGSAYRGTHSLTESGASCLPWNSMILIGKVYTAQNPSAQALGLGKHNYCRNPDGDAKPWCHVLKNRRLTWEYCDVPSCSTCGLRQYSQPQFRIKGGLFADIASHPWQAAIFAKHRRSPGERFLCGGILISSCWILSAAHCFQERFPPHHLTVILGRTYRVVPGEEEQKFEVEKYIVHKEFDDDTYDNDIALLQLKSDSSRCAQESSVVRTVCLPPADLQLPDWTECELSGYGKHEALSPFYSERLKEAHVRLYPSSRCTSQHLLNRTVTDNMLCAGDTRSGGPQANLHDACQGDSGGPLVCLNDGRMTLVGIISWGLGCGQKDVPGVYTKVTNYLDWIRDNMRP
The target in assay [7] is T5, Kallikrein 12 (Homo sapiens, UniProt Q9UKR0).
T5 sequence (Q9UKR0 18-248): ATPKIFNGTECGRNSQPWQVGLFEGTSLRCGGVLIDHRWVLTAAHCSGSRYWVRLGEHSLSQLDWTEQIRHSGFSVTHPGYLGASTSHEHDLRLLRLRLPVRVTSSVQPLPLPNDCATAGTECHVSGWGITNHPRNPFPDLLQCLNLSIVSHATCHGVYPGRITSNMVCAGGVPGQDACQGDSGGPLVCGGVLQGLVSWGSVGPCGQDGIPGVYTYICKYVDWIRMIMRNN
Nature of the assay: Serine protease inhibition assay: Kallikrein 12. As to conditions: control compound, 10-dose 3-fold serial dilution starting at 10 μM or 100 uM. As for the experimental part:
as §1, §2

For assay [8], the target named is Plasmin (Homo sapiens, UniProt P00747). Briefly: Serine protease inhibition assay: Plasmin. The following applies: control compound, 10-dose 3-fold serial dilution starting at 10 μM or 100 uM. As for the experimental part:
as §1, §2

For assay [9], the target named is Urokinase (Homo sapiens, UniProt P00749). Nature of the assay: Serine protease inhibition assay: Urokinase. As to conditions: control compound, 10-dose 3-fold serial dilution starting at 10 μM or 100 uM. As for the experimental part: as §1, §2
The subject of assay [10] is trypsin, human pancrease. Nature of the assay: Trypsin inhibition assay. The following applies: 0.25 nM trypsin, PFR-AMC, 2 hours. How it is done: Fluorescence intensity was measured every 5 minutes. Gabexate mesylate was used as a positive control, in a dilution series starting at 1 μM. The assay was performed in duplicate.
For assay [11], the target named is Activated Protein C (Homo sapiens, UniProt P04070). Nature of the assay: Serine protease inhibition assay: Activated Protein C. As to conditions: control compound, 10-dose 3-fold serial dilution starting at 10 μM or 100 uM. How it is done:
as §1, §2

Assay [12] concerns the target Kallikrein 2 (Homo sapiens, UniProt P20151). Briefly: Serine protease inhibition assay: Kallikrein 2. As to conditions: control compound, 10-dose 3-fold serial dilution starting at 10 μM or 100 uM. How it is done:
as §1, §2

In assay [13] the target is Thrombin a (Homo sapiens, UniProt P00734). Briefly: Serine protease inhibition assay: Thrombin a. The following applies: control compound, 10-dose 3-fold serial dilution starting at 10 μM or 100 uM. How it is done: as §1, §2
For assay [14], the target named is Hepsin (Homo sapiens, UniProt P05981). Briefly: Serine protease inhibition assay: Hepsin. As to conditions: control compound, 10-dose 3-fold serial dilution starting at 10 μM or 100 uM. How it is done:
as §1, §2

Assay [15] has as its target Granzyme B (Homo sapiens, UniProt P10144). Briefly: Serine protease inhibition assay: Granzyme B. The following applies: control compound, 10-dose 3-fold serial dilution starting at 10 μM or 100 uM. As for the experimental part:
as §1, §2

The target in assay [16] is T6, Cathepsin G (Homo sapiens, UniProt P08311).
T6 sequence (P08311 21-244): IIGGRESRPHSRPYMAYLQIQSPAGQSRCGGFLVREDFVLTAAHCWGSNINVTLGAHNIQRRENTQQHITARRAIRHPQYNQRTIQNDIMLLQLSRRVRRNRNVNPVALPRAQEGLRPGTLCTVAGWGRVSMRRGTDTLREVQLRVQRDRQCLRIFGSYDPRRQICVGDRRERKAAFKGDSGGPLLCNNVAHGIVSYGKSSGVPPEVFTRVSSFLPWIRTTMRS
Briefly: Serine protease inhibition assay: Cathepsin G. The following applies: control compound, 10-dose 3-fold serial dilution starting at 10 μM or 100 uM. As for the experimental part:
as §1, §2

Where a name gives a salt, the structure may show the parent alone. Read-outs that look alike come from different tables or passages of the source. Peptide text beside a SMILES is read from it.

Chain of Granzyme B (P10144 21-247, species assumed): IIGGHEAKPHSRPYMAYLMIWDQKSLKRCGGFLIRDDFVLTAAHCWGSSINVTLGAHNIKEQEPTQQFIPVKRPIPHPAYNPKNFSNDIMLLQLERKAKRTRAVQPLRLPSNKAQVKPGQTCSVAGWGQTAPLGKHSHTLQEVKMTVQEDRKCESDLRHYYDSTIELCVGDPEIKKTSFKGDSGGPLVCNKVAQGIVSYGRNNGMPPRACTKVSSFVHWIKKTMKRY
Chain of Kallikrein 1 (P06870 25-262, species assumed): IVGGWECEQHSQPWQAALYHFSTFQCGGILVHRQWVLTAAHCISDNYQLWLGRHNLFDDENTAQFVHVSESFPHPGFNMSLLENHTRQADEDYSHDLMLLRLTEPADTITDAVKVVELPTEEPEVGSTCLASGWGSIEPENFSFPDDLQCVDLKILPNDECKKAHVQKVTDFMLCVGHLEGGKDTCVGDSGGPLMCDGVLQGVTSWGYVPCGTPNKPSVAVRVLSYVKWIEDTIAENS
Chain of Activated Protein C (P04070 212-461 limits assumed): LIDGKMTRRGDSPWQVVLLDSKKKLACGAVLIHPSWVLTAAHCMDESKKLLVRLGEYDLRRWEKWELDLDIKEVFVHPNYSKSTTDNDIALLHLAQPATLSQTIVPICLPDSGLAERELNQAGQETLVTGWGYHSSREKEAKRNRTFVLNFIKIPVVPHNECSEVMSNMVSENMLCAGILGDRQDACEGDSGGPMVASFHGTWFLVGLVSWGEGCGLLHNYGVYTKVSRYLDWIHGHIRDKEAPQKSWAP
Chain of Activated Protein C (P04070 43-197 limits assumed): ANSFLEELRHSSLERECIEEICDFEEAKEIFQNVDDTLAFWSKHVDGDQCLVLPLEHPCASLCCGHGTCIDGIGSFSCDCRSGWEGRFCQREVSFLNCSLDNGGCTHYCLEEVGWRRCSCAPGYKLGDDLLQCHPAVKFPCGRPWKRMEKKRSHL
Chain of Plasmin (P00747 581-810 limits assumed, species assumed): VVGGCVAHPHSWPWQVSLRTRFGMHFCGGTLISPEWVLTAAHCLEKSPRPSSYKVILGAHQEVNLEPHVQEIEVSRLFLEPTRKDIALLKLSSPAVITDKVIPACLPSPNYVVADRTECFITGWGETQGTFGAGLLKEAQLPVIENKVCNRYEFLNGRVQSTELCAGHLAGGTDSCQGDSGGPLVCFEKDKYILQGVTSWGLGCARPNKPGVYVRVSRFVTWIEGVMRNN
Chain of Plasmin (P00747 97-580 limits assumed, species assumed): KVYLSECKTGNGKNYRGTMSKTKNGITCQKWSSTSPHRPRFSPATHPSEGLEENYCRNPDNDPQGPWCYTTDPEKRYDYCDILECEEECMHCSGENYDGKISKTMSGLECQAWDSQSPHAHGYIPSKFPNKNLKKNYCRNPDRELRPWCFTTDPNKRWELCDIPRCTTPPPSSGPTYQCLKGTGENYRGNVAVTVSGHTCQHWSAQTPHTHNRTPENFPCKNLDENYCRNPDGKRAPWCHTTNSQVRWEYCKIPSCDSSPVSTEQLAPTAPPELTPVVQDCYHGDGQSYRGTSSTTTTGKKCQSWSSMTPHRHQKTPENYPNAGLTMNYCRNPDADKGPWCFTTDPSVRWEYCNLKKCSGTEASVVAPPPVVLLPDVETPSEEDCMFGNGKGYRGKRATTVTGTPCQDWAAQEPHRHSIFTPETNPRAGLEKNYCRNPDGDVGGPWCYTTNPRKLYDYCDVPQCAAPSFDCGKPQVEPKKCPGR
Chain of Hepsin (P05981 whole entry): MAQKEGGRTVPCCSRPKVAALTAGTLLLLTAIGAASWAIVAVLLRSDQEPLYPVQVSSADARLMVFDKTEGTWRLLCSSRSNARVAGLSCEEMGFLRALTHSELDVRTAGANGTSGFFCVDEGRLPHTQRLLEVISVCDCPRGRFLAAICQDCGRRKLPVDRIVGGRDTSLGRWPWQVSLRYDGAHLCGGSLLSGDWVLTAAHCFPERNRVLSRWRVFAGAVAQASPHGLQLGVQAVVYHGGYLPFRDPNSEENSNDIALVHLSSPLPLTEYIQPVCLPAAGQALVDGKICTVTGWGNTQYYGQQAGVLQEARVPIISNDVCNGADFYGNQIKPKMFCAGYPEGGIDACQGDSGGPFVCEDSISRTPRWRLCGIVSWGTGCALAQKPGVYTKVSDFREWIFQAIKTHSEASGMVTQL
Chain of Kallikrein 2 (P20151 25-261, species assumed): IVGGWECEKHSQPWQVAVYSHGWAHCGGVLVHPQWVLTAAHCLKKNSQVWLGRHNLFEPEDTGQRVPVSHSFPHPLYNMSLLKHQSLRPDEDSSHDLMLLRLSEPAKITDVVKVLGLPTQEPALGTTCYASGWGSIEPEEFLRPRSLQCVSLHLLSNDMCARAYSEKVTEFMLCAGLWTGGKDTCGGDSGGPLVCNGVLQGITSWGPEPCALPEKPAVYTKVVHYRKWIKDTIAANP

The IC50 is the concentration needed to halve the response being measured. In turn, `N=C(N)c1ccc2cc(OC(=O)c3ccc(N=C(N)N)cc3)ccc2c1` [Nafamostat mesylate] registered an IC50 in [1] of 23.2 nM.

Regarding `CC(=O)N[C@@H](CC(C)C)C(=O)N[C@@H](CC(C)C)C(=O)N[C@H](C=O)CCCNC(=N)N` [Leupeptin], the IC50 in [2] was 2990 nM.

Take `N=C(N)c1ccc2nc(-c3cc(CC(=O)N[C@@H](CC(=O)O)C(=O)O)cc(-c4cc(S(N)(=O)=O)ccc4O)c3O)[nH]c2c1` [PCI 27483]: the IC50 in [3] is 141 nM.

For the compound “Gabexate mesylate [Gabexate mesylate (GM)]”, the IC50 came out at 8730 nM in [4]; 201 nM in assay [5]; 1060 nM in assay [6]; 32.5 nM in assay [7]; 253 nM in assay [8]; 16.5 nM in assay [9]. Further, the IC50 in [10] (read-out: Compound IC50 (M) Data 1) was 2.13e-09 M; in [10] (read-out: Compound IC50 (M) Data 2) it was 2.33e-09 M; in assay [11], 64.8 nM; in assay [12], 139 nM; in assay [13], 837 nM; in assay [14], 51 nM.

In the case of `CC[C@H](C)[C@H](NC(C)=O)C(=O)N[C@@H](CCC(=O)O)C(=O)N[C@H](C(=O)N[C@H](C=O)CC(=O)O)[C@@H](C)O` [IETD-CHO] (Ac-IETD-aldehyde; N-terminus assumed), the IC50 in assay [15] is 178 nM.

`CC(C)C[C@H](NC(=O)[C@@H](NC(=O)N[C@@H](Cc1ccccc1)C(=O)O)[C@@H]1CCN=C(N)N1)C(=O)N[C@H](C=O)Cc1ccccc1` [Chymostatin]: it took 4090 nM to reach half-maximal inhibition in [16] (IC50).
